The text below walks through data of patent US20250051327A1, “MALT-1 MODULATORS” (EXSCIENTIA AI LIMITED, priority 2020, published 2025).

Structures are written as SMILES.

Chain of Recombinant human MALT-1 (amino acids 340-824) (Q9UDY8 340-824): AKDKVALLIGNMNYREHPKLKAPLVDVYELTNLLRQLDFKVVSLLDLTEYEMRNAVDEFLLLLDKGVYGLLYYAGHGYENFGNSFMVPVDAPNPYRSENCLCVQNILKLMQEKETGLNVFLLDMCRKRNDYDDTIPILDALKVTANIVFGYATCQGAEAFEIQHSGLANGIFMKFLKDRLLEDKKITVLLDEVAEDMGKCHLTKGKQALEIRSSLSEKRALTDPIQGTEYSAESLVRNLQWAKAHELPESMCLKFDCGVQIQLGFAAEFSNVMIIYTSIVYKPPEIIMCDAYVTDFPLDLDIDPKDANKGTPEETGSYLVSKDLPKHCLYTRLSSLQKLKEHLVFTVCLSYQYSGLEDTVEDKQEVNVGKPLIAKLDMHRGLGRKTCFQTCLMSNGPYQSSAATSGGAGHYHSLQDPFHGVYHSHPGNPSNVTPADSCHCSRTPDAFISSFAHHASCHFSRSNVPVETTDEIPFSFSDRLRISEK

The subject of the first experiment is IL-2 secretion by human effector memory T cells (TEM). Briefly: Effector memory T cells IL-2 release assay. The experiment is classed as cell-based. The settings on record: T-cell; human CD4+ effector memory T cells, CD3/CD28 bead stimulation, 24 h; read-out: CD4TC IL2 IC50. The protocol:
Effector Memory T Cells IL-2 Release Assay
Test compound-mediated inhibition of NFκB signalling in T cells was assessed by quantification of the IL-2 secretion by human effector memory T cells (TEM) upon treatment and stimulation. Human TEM cells were isolated from buffy coats of healthy donors obtained from the French blood bank. First, peripheral blood mononuclear cells (PBMC) were purified from buffy coats diluted 1:1 with DPBS (Gibco, cat #14190-094) by Pancoll (PAN BIOTECH, cat #P04-60500) density gradient centrifugation at 400×g for 20 minutes. TEM cells were further enriched by negative immuno-magnetic cell sorting using a human CD4+ Effector Memory T Cell Isolation Kit (Miltenyi, cat #130-094-125) according to the manufacturer's instructions. Aliquots of 3×10E6 purified TEM cells were kept frozen in Cryo-SFM medium (PromoCell, cat #C-29912) in gas phase nitrogen until used. Cell purity was verified by flow cytometry analysis of 200 000 PFA-fixed cells previously labelled with monoclonal antibodies anti-CD4-PerCP-Cy5.5 (BD Pharmigen, cat #332772), anti-CD8-V500 (BD Biosciences, cat #561617), anti-CD14-Pacific Blue (Biolegend, cat #325616), anti-CD45 RA-FITC (Biolegend, cat #304106) and anti-CCR7-APC (in CD4+ Effector Memory T Cell Isolation Kit, Miltenyi, cat #130-094-125).
TEM cells were resuspended in complete RPMI medium composed of: RPMI 1640 (Gibco, cat #31870-025), 10% heat inactivated fetal bovine serum (Sigma, cat #F7524), 2 mM GlutaMAX (Gibco, cat #35050-038), 1 mM sodium pyruvate 100× (Gibco, cat #11360-039), 1% MEM non-essential amino acids solution (Gibco, cat #11140-035) and 100 U/mL penicillin, 100 μg/mL streptomycin (Sigma-Aldrich, cat #11074440001). 5,000 cells per well were plated onto flat clear bottom 384 well plates (Corning, cat #3770). 5,000 Dynabeads Human T-Activator CD3/CD28 (Gibco, cat #11132D) were added to each well for cell stimulation. Finally, 10 doses of test compound, originally prepared in DMSO by serial semi-log step dilution, were also added to cells in triplicate wells. Final DMSO concentration in wells was 0.1% in a total volume of 100 μL complete medium. Plates were incubated for 24 h at 37° C. in 5% CO2 atmosphere. After incubation, cell suspensions were centrifuged at 400×g and culture supernatants were recovered and stored at −80° C. Cell viability was assessed by flow cytometry after staining the cells with Fixable Viability Dye eFluor 780 (Invitrogen, cat #65-0865-14). IL-2 levels were determined in cell supernatants using an HTRF human IL-2 detection kit (Cisbio, cat #62HIL02PEH). IL-2 data at the different compound doses were fitted to a 4-parameter logistic curve to determine IC50 values, corresponding to the compound concentration leading to 50% reduction of the maximal IL-2 levels observed in each experiment. Viability data were analysed similarly to exclude cytotoxicity as a cause of IL-2 decrease (see Table 1).
By IC50 is commonly meant the concentration that gives 50% inhibition. As for `CN(C(=O)[C@@H]1CS(=O)(=O)CC12COC2)[C@@H](c1ccc(N2CCCc3c2cnc2cc(Cl)nn32)cc1)C(F)(F)F` [CPD0073974, (8rel-R)-N-[(1S)-1-(4-{4-chloro-2,3,7,10-tetraazatricyclo[7.4.0.0^2,6]trideca-1(9),3,5,7-tetraen-10-yl}phenyl)-2,2,2-trifluoroethyl]-N-methyl-6,6-dioxo-2-oxa-6λ^6-thiaspiro[3.4]octane-8-carboxamide], the IC50 was found to be 340 nM.
Consider `COc1ccc2ncc(Nc3ccc([C@H](N(C)C(=O)[C@H]4CC[S@@+]([O-])CC4)C(F)(F)F)cc3)c([C@H](C)OC)c2n1` (relative stereo) [CPD0072935, (1rel-s,4rel-s)-N-methyl-1-oxo-N-[(1S)-2,2,2-trifluoro-1-[4-({6-methoxy-4-[(1 rel-S)-1-methoxyethyl]-1,5-naphthyridin-3-yl}amino)phenyl]ethyl]-1λ^4-thiane-4-carboxamide], for which the IC50 turned out to be 34 nM.
In the case of `O=C(CC1CS(=O)(=O)C1)N[C@@H](c1ccc(N2CCCc3c2cnc2cc(Cl)nn32)cc1)C(F)(F)F` [CPD0073535], the IC50 stood at 2070 nM.
Regarding `COc1ccc2ncc(Nc3ccc([C@H](N(C)C(=O)[C@H]4CCC(=O)N4)C(F)(F)F)cc3)c([C@H](C)OC)c2n1` (relative stereo) [CPD0075581, (2 rel R)-N-methyl-5-oxo-N-[(1S)-2,2,2-trifluoro-1-[4-[6-methoxy-4-[(1 rel S)-1-methoxyethyl]-1,5-naphthyridin-3-yl]amino]phenyl]ethyl]pyrrolidine-2-carboxamide], the IC50 is 29 nM.
On to `COc1ccc2ncc(Nc3ccc([C@H](N(C)C(=O)C4CCS(=O)(=O)CC4)C(F)(F)F)cc3)c([C@H]3CCOC3)c2n1` [CPD0074039], for which the IC50 stood at 34 nM.
As to `CN(C(=O)[C@H]1CC[S@@](=N)(=O)CC1)[C@@H](c1ccc(N2CC(C)(C)Cc3c2cnc2cc(Cl)nn32)cc1)C(F)(F)F` [CPD0073498, (1rel s, 4rel s)-N-[(1S)-1-(4-{4-chloro-12,12-dimethyl-2,3,7,10-tetraazatricyclo[7.4.0.0^2,6]trideca-1(9),3,5,7-tetraen-10-yl}phenyl)-2,2,2-trifluoroethyl]-1-imino-N-methyl-1-oxo-1λ^6-thiane-4-carboxamide], the IC50 came out at 163 nM.
Consider `COC[C@@H]1CCN(c2ccc([C@H](N(C)C(=O)C3CCS(=O)(=O)CC3)C(F)(F)F)cc2)c2cnc3cc(Cl)nn3c21` [CPD0073503, N-[(1S)-1-[4-[(13rel-R)-4-chloro-13-(methoxymethyl)-2,3,7,10-tetrazatricyclo[7.4.0.0^2,6]trideca-1(9),3,5,7-tetraen-10-yl]phenyl]-2,2,2-trifluoro-ethyl]-N-methyl-1,1-dioxo-16-thiane-4-carboxamide], for which the IC50 worked out at 209 nM.
Same read-out and setting: then `COc1ccc2ncc(Nc3ccc([C@H](N(C)C(=O)C4CCS(=O)(=O)CC4)C(F)(F)F)cc3)c([C@@H]3CCOC3)c2n1` [CPD0074040], with 33 nM; and `COc1ccc2ncc(Nc3ccc([C@H](N(C)C(=O)[C@H]4CNC(=O)C4)C(F)(F)F)cc3)c([C@H](C)OC)c2n1` (relative stereo) [CPD0074562, (3 rel R)-N-methyl-5-oxo-N-[(1S)-2,2,2-trifluoro-1-[4-[[6-methoxy-4-[(1 rel S)-1-methoxyethyl]-1,5-naphthyridin-3-yl]amino]phenyl]ethyl]pyrrolidine-3-carboxamide], with 68 nM.

In another experiment the target is Recombinant human MALT-1 (amino acids 340-824) (Homo sapiens (Human), UniProt Q9UDY8). The experiment is described as follows: MALT-1 inhibition assay (fluorogenic substrate Ac-LRSR-Rh110-DP). The settings on record: recombinant human MALT-1, substrate Ac-LRSR-Rh110-DP. In kind it is biochemical. As to the method:
MALT-1 paracaspase activity was measured using the fluorogenic substrate Ac-LRSR-Rh110-DP (purchased from Biosantan GmbH). […] The reaction was initiated by addition of substrate. Final concentrations of MALT-1 and substrate were 3 nM and 10 μM respectively. Reactions were incubated in the dark for 60 minutes at 25° C. […] Percent inhibition values were calculated from relative fluorescence units at different doses and fitted to a 4-parameter logistic curve to determine IC50 values (see Table 1).
On to `CN(C(=O)C1CC(O)C1)[C@@H](c1ccc(N2CCCc3c2cnc2cc(Cl)nn32)cc1)C(F)(F)F` (some centres unmarked) [CPD0073055], for which the IC50 came to 46 nM.
`CN(C(=O)C1CNC(=O)N1)[C@@H](c1ccc(N2CCCc3c2cnc2cc(Cl)nn32)cc1)C(F)(F)F` (stereo in doubt) [CPD0075579, (4rel R)-N-[(1S)-1-[4-(4-chloro-2,3,7,10-tetrazatricyclo[7.4.0.0^2,6]trideca-1(9),3,5,7-tetraen-10-yl)phenyl]-2,2,2-trifluoro-ethyl]-N-methyl-2-oxo-imidazolidine-4-carboxamide]: the IC50 was 44 nM.
